Earlier results in patent publication US20250282901A1, “POLYMERIC CHELATORS CROSS-LINKED WITH HIGH MOLECULAR WEIGHT CROSS-LINKERS” (THE UNIVERSITY OF KANSAS, priority 2021, published 2025).

Question: Which results are given for `O=C(N[C@H]1COC(=O)[C@@H](NC(=O)c2cccc(O)c2O)COC(=O)[C@@H](NC(=O)c2cccc(O)c2O)COC1=O)c1cccc(O)c1O` [Enterobactin]?
Answer: relative iron binding constant (Fe(III)): 35.5; Log K (natural iron chelator): 52
